This note sets out measurements from patent US20210392890A1, “COMPOSITIONS COMPRISING PYRIDINE CARBOXYLATE HERBICIDES AND PLANT GROWTH REGULATORS” (Corteva Agriscience LLC, priority 2018, published 2021).

Values joined by “and” are separate entries in the source; they are usually repeats but may differ in a detail not shown here. Identical values can stand only once.

Type in all cases: in vivo
Data set [1] has as its system Helianthus annuus (common sunflower). The data set is described as follows: Greenhouse postemergence herbicidal effect on HELAN. An excerpt: (§1) Seeds of the desired test plant species were planted in a 90:10% v/v (volume/volume) mixture of PRO-MIX® BX (Premier Tech Horticulture, Quakertown, Pa., USA) and PROFILE® GREENS GRADE™ (Profile Products LLC, Buffalo Grove, Ill., USA) planting mixture, which typically has a pH of 5.2 to 6.2 and an organic matter content of at least 50 percent, in plastic pots with a surface area of 103.2 square centimeters (cm^2). In some aspects, to help ensure good germination and healthy plants, a fungicide treatment and/or other chemical or physical treatment was applied. The plants were grown for 7-36 days (d) in a greenhouse with an approximate 14-hour (h) photoperiod which was maintained at about 23° C. during the day and 22° C. during the night. Nutrients and water were added on a regular basis and supplemental lighting was provided with overhead metal halide 1000-Watt lamps as necessary. The plants were employed for testing when they reached the second or third true leaf stage.
(§2) Emulsifiable concentrates of each of each pyridine carboxylate herbicide (Compound A or Compound B) were prepared at 100 grams acid equivalent per liter (g ae/L). The emulsifiable concentrates also included a safener, cloquintocet-mexyl, at 120 grams active ingredient per liter (g ai/L). An aliquot of each emulsifiable concentrate was placed in a 25 mL glass vial and diluted with an aqueous mixture of 1.25% (v/v) ACTIROB® B esterified rapeseed oil (Bayer Crop Science, Research Triangle Park, N.C., USA) or MSO® Concentrate with LECI-TECH® methylated soybean oil (Loveland Products, Loveland, Colo., USA) to obtain concentrated stock solutions at the highest application rate for each herbicide, based upon a 12 milliliter (mL) application volume at a rate of 187 liters per hectare (L/ha). The concentrated stock solutions were further diluted with an aqueous mixture of 1.25% v/v ACTIROB® B or MSO® Concentrate with LECI-TECH® to obtain stock solutions at reduced application rates for each herbicide. Spray solutions of the herbicide combinations (Compound A or Compound B plus the PGR) were prepared by adding weighed amounts or aliquots of the PGR to the stock solutions of Compound A or Compound B to form 12-mL spray solutions in two-way combinations.
(§3) The spray solutions were applied to the plant material with an overhead Mandel track sprayer equipped with 8002E nozzles calibrated to deliver 187 L/ha over an application area of 0.503 square meters (m^2) at a spray height of 18 inches (43 centimeters (cm)) above the average plant canopy. Control plants were sprayed in the same manner with the solvent blank. All pyridine carboxylate herbicide (component a) application rates are given as “g ae/ha” and all PGR (component b) application rates are given as “g ai/ha.”
(§4) The treated plants and control plants were placed in a greenhouse as described above and watered by sub-irrigation to prevent wash-off of the test compounds. After 20-22 d, the condition of the test plants as compared with that of the control plants was determined visually and scored on a scale of 0 to 100 percent where 0 corresponds to no injury and 100 corresponds to complete kill.

The subject of data set [2] is Polygonum convolvulus (wild buckwheat). The data set is described as follows: Greenhouse postemergence herbicidal effect on POLCO.
From the text: as §1, §2, §3, §4

Data set [3] relates to Stellaria media (chickweed). Put plainly: Greenhouse postemergence herbicidal effect on STEME.
From the text: as §1, §2, §3, §4

For data set [4], the system named is Chenopodium album L. (common lambsquarters). Put plainly: Greenhouse postemergence herbicidal effect on CHEAL.
From the text: as §1, §2, §3, §4

The test system of data set [5] is Brassica napus (spring rape). Put plainly: Greenhouse postemergence herbicidal effect on BRSNN.
From the text: as §1, §2, §3, §4

The subject of data set [6] is Cirsium arvense (Canada thistle). Put plainly: Greenhouse postemergence herbicidal effect on CIRAR.
From the text: as §1, §2, §3, §4

Data set [7] relates to Ipomoea hederacea (ivyleaf morningglory). Put plainly: Greenhouse postemergence herbicidal effect on IPOHE.
From the text: as §1
(§5) Emulsifiable concentrates of each of each pyridine carboxylate herbicide (Compound A or Compound B) were prepared at 100 grams acid equivalent per liter (g ae/L). The emulsifiable concentrates also included a safener, cloquintocet-mexyl, at 120 grams active ingredient per liter (g ai/L). […]
as §4

The subject of data set [8] is Amaranthus retroflexus (pigweed). The data set is described as follows: Greenhouse postemergence herbicidal effect on AMARE.
From the text: as §1, §2, §3, §4

The subject of data set [9] is Setaria faberi (giant foxtail). The data set is described as follows: Greenhouse postemergence herbicidal effect on SETFA.
From the text: as §1, §2, §3, §4

In data set [10] the test system is Viola tricolor (wild pansy). The data set is described as follows: Greenhouse postemergence herbicidal effect on VIOTR.
From the text: as §1, §2, §3, §4

The test system of data set [11] is Kochia scoparia (kochia). Put plainly: Greenhouse postemergence herbicidal effect on KCHSC.
From the text: as §1, §2, §3, §4

Data set [12] concerns Glycine max (soybean). Put plainly: Greenhouse postemergence herbicidal effect on GLXMA.
From the text: as §1, §2, §3, §4

For data set [13], the system named is Euphorbia heterophylla (poinsettia). Put plainly: Greenhouse postemergence herbicidal effect on EPHHL.
From the text: as §1, §2, §3, §4

For data set [14], the system named is Abutilon theophrasti (velvetleaf). Put plainly: Greenhouse postemergence herbicidal effect on ABUTH.
From the text: as §1, §2, §3, §4

Data set [15] has as its system Cyperus esculentus (yellow nutsedge). Put plainly: Greenhouse postemergence herbicidal effect on CYPES. The conditions noted are these: Compound A 0 g/ha, Ethephon 140 g/ha.
From the text: as §1, §5
(§6) The treated plants and control plants were placed in a greenhouse as described above and watered by sub-irrigation to prevent wash-off of the test compounds. After 20-22 d, the condition of the test plants as compared with that of the control plants was determined visually and scored on a scale of 0 to 100 percent where 0 corresponds to no injury and 100 corresponds to complete kill. […]

In data set [16] the test system is Rumex obtusifolia (broadleaf dock). Put plainly: Greenhouse postemergence herbicidal effect on RUMOB. The conditions noted are these: Compound A 0 g/ha, Ethephon 140 g/ha.
From the text: as §1, §5, §6

Data set [17] deals with Digitaria sanguinalis (large crabgrass). The data set is described as follows: Greenhouse postemergence herbicidal effect on DIGSA. The conditions noted are these: Compound A 0 g/ha, Ethephon 140 g/ha.
From the text: as §1, §5, §6

Data set [18] has as its system Echinochloa crus-galli (barnyard grass). Put plainly: Greenhouse postemergence herbicidal effect on ECHCG. The settings on record: Compound A 0 g/ha, Ethephon 140 g/ha.
From the text: as §1, §5, §6

Data set [19] relates to rice (ORYSA). The settings on record: Compound A 0 g/ha, Ethephon 140 g/ha.
From the text: as §1, §5, §6

Data set [20] deals with Zea mays (maize). The settings on record: Compound A 0 g/ha, Ethephon 140 g/ha.
From the text: as §1, §2, §3, §4

The test system of data set [21] is Sorghum vulgare (grain sorghum). The conditions noted are these: Compound A 0 g/ha, Ethephon 140 g/ha.
From the text: as §1, §2, §3, §4

The mark [22] stands for this setting: Compound A 0 g/ha, Ethephon 140 g/ha.

For the molecule `C[N+](C)(C)CCCl.[Cl-]` [Chlormequat, Chlormequat chloride, reference compound], the “% visual injury Obs” value in data set [1] (PGR 560 g ai/ha alone) was 0%; in data set [2] (PGR 560 g ai/ha alone) it was 0% and 5%; in [3] (PGR 560 g ai/ha alone), 0%; in [4] (PGR 560 g ai/ha alone), 0%; in data set [5] (PGR 560 g ai/ha alone), 0%; in data set [6] (PGR 560 g ai/ha alone) it was 0%. Also, the “% visual injury Obs” value in [7] (PGR 560 g ai/ha alone) was 0%; in data set [8] (PGR 560 g ai/ha alone), 0%; in data set [9] (PGR 560 g ai/ha alone), 0%; in data set [10] (PGR 560 g ai/ha alone), 0% and 3%; in data set [11] (PGR 560 g ai/ha alone) it was 0%; in data set [12] (PGR 560 g ai/ha alone) it was 10%.

As for `C#CCOC(=O)c1nc(-c2ccc3cc[nH]c3c2F)c(F)c(N)c1Cl` [Compound B, propargyl 4-amino-3-chloro-5-fluoro-6-(7-fluoro-1H-indol-6-yl)pyridine-2-carboxylate], the “% visual injury Obs” value was 85% in [1] (herbicide 7.5 g ae/ha alone); 100% in data set [1] (herbicide 10 g ae/ha alone); 73% in [2] (herbicide 7.5 g ae/ha alone); 80% in data set [2] (herbicide 10 g ae/ha alone); 10% in data set [3] (herbicide 7.5 g ae/ha alone); 93% in data set [3] (herbicide 10 g ae/ha alone). Also, the “% visual injury Obs” value in [13] (herbicide 7.5 g ae/ha alone) was determined as 83%; in data set [13] (herbicide 10 g ae/ha alone), 99%; in data set [4] (herbicide 7.5 g ae/ha alone) it was 85%; in data set [4] (herbicide 10 g ae/ha alone), 90%; in [5] (herbicide 7.5 g ae/ha alone), 68%; in [5] (herbicide 10 g ae/ha alone), 85%. Also, the “% visual injury Obs” value is recorded as 45% in data set [6] (herbicide 7.5 g ae/ha alone); 45% in data set [6] (herbicide 10 g ae/ha alone); 68% in [14] (herbicide 7.5 g ae/ha alone); 68% in data set [14] (herbicide 10 g ae/ha alone); 70% in [9] (herbicide 7.5 g ae/ha alone); 55% in data set [9] (herbicide 10 g ae/ha alone). Moreover, the “% visual injury Obs” value is on record as 10% in [10] (herbicide 7.5 g ae/ha alone), 40% in data set [10] (herbicide 10 g ae/ha alone), 68% in [11] (herbicide 7.5 g ae/ha alone) and 80% in data set [11] (herbicide 10 g ae/ha alone).

Consider `O=P(O)(O)CCCl` [Ethephon, reference compound], for which the “Herbicidal Effects (% visual injury) HELAN Obs” value in data set [1] (setting [22]) turned out to be 0%. Further, the “Herbicidal Effects (% visual injury) POLCO Obs” value in [2] (setting [22]) amounted to 0%. In addition, the “Herbicidal Effects (% visual injury) STEME Obs” value in [3] (setting [22]) is reported as 0%. Moreover, in [13] (setting [22]), the “Herbicidal Effects (% visual injury) EPHHL Obs” value was found to be 0%. Also, the “Herbicidal Effects (% visual injury) CHEAL Obs” value in data set [4] (setting [22]) was 0%. Also, the “Herbicidal Effects (% visual injury) BRSNN Obs” value in data set [5] (setting [22]) is on record as 0%. The “Herbicidal Effects (% visual injury) CYPES Obs” value in data set [15] amounted to 0%. Moreover, in [16], the “Herbicidal Effects (% visual injury) RUMOB Obs” value is reported as 0%. Besides, the “Herbicidal Effects (% visual injury) CIRAR Obs” value in data set [6] (setting [22]) was 0%. The “Herbicidal Effects (% visual injury) DIGSA Obs” value in [17] worked out at 0%. Also, the “Herbicidal Effects (% visual injury) AMARE Obs” value in data set [8] (setting [22]) was 0%. Moreover, in data set [18], the “Herbicidal Effects (% visual injury) ECHCG Obs” value worked out at 0%. For the same molecule, the “Herbicidal Effects (% visual injury) ABUTH Obs” value in [14] (setting [22]) is recorded as 0%. Moreover, the “Herbicidal Effects (% visual injury) SETFA Obs” value in data set [9] (setting [22]) was 0%. Besides, the “Herbicidal Effects (% visual injury) ORYSA Obs” value in data set [19] came to 0%. For the same molecule, in data set [20], the “Herbicidal Effects (% visual injury) ZEAMX Obs” value amounted to 0%. Moreover, the “Herbicidal Effects (% visual injury) SORVU Obs” value in data set [21] stood at 0%. Besides, in data set [10] (setting [22]), the “Herbicidal Effects (% visual injury) VIOTR Obs” value turned out to be 0%. Also, in [11] (setting [22]), the “Herbicidal Effects (% visual injury) KCHSC Obs” value was determined as 0%.

Regarding `O=C(O)Cc1c[nH]c2ccccc12` [IAA, indol-3-ylacetic acid, reference compound], the “% visual injury Obs” value in data set [1] (PGR 140 g ai/ha alone) was 0%; in data set [2] (PGR 140 g ai/ha alone) it was 0%; in data set [3] (PGR 140 g ai/ha alone), 5%; in data set [5] (PGR 140 g ai/ha alone), 0%; in data set [6] (PGR 140 g ai/ha alone) it was 0%; in [7] (PGR 140 g ai/ha alone), 0%. Moreover, the “% visual injury Obs” value in data set [8] (PGR 140 g ai/ha alone), in data set [14] (PGR 140 g ai/ha alone), in [9] (PGR 140 g ai/ha alone), in data set [10] (PGR 140 g ai/ha alone), in data set [11] (PGR 140 g ai/ha alone) and in [12] (PGR 140 g ai/ha alone) was 0% in each case.

With `O=C(O)CCCc1c[nH]c2ccccc12` [IBA, indol-3-butyric acid, reference compound], the “% visual injury Obs” value is on record as 0% in data set [1] (PGR 140 g ai/ha alone); 0% in data set [2] (PGR 140 g ai/ha alone); 8% in [3] (PGR 140 g ai/ha alone); 0% in data set [5] (PGR 140 g ai/ha alone); 0% in [6] (PGR 140 g ai/ha alone); 0% in data set [7] (PGR 140 g ai/ha alone). Further, the “% visual injury Obs” value in [8] (PGR 140 g ai/ha alone) came out at 0%; in [14] (PGR 140 g ai/ha alone) it was 0%; in [9] (PGR 140 g ai/ha alone), 5%; in data set [10] (PGR 140 g ai/ha alone), 3%; in data set [11] (PGR 140 g ai/ha alone) it was 0%; in data set [12] (PGR 140 g ai/ha alone) it was 0%.
